Experimental data reported in patent US20250002492A1, “COMPOSITIONS OF FOLATE ABSORPTION INHIBITORS AND METHODS THEREOF” (THE TEXAS A&M UNIVERSITY SYSTEM, priority 2023, published 2025).
Read-outs that look alike come from different tables or passages of the source.

Legend:
[1] = test system: C. elegans strain N2; assay: Lifespan assay in worms; format: in vivo
Excerpt: The ability of pharmacological or other interventions to extend the lifespan of different organisms is often conserved. For the instant example, the disclosed compounds can be tested for their ability to extend the lifespan of the worm model system Caenorhabditis elegans (N2 strain) [see, e.g., PMID: 19488025]. The organisms can be first exposed to the compounds as adults, 2-3 days after the egg stage until their death, on solid media containing the compounds at the desired concentration. The temperature can be kept constant at 20° C. throughout the assays. The bacteria used as food for the worms (Escherichia coli strain OP-50) can be dead (e.g., killed by lethal doses of ultraviolet radiation) to ensure that any effects on lifespan are not indirect, mediated through bacterial metabolism.
The assays were performed at 20° C. using C. elegans strain N2 and a bacterial strain (OP50) commonly used as food for the worms. Briefly, the assays were performed on solid agar nematode growth media (NGM) plates prepared fresh before each experiment. The bacterial lawn was exposed twice to a UV dose of 120 mJ/cm^2 using a UVC-515 Ultraviolet Multilinker (Ultra-Lum, Inc.). Streaking these UV-exposed bacteria to fresh LB agar plates (1% w/v tryptone, 0.5% w/v yeast extract, 1% w/v sodium chloride) produced no visible colonies. Methotrexate, or the ATIC inhibitor, was first dissolved in DMSO and then added to the media used to prepare the plates after autoclaving (the media were kept in a 50° C. water bath until the plates were poured). Mock-treated control plates contained only DMSO. At the start of each experiment, a sufficient number of eggs were collected from plates without any drugs and then placed on plates containing the indicated doses of each compound tested. After hatching and progression to the adult stage, animals were transferred to new plates (marked as the start of the lifespan assay) containing the drug tested and fluorodeoxyuridine (FUDR; dissolved in water), added at 50 μM to block hatching of new animals. The plates were scored at least every other day until all the worms died. If an animal responded to gentle touch, it was scored as alive, otherwise a death was recorded, and the animal was removed from the plate. Worms were transferred to fresh plates as needed (e.g., if there was evidence of microbial contamination, dryness/cracks on the agar surface, consumption of the bacterial lawn, or hatching of new animals that escaped the FUDR block). The reported lifespans were compiled from several independent experiments done over several months (9-10 months for the methotrexate experiments and 4-5 months for the ATIC inhibitor), each scored by multiple individuals (4-5 persons per experiment). No experiments were excluded from the analysis.

[2] = test system: Swiss mice; settings: 0-10 ppm in the diet in alternating weeks, male and female, 7 to 120 weeks of age; 5 of the 8 conditions tested; one case p=0.04; cited from earlier work
[3] = test system: yeast cells; assay: Yeast cell proliferation; format: cell-based, S. cerevisiae; settings: low doses (0.5-10 μM); not shown
[4] = test system: S. cerevisiae strain BY4742; assay: Cell size measurement in yeast (Z2 Channelyzer); format: cell-based; settings: from 47 fL
Method: (§1) In the instant example, methotrexate (MTX), or the ATIC inhibitor (ATIC-Inh), was dissolved in dimethylsulfoxide (DMSO) and used at the final concentrations shown in FIGS. 2B-2D. The cell size measurements shown in FIG. 3 were also done in strain BY4742 in YPD.
Briefly, overnight cultures were diluted to about 5×10^5 cells/mL in fresh media, allowed to proliferate for 2-3 h at 30° C., and then methotrexate was added at the indicated final concentrations. 4-5 h later, cell size was measured with a Z2 Channelyzer.

[5] = test system: C. elegans; settings: 220 μM, treated at the adult stage; cited from earlier work
[6] = test system: S. cerevisiae strain BY4742; assay: Replicative lifespan assay in yeast; format: cell-based
Method: The assays were performed in the standard S. cerevisiae strain BY4742 (MATα his3Δ1 leu2Δ0 lys2Δ0 ura3Δ0) on solid rich undefined media (YPD; 1% w/v yeast extract, 2% W/v peptone, 2% W/v dextrose, 2% w/v agar).
as §1

[7] = test system: mice; settings: cited from earlier work

In the case of CN(Cc1cnc2nc(N)nc(N)c2n1)c1ccc(C(=O)N[C@@H](CCC(=O)O)C(=O)O)cc1 [methotrexate, 4-amino-N10-methylpteroylglutamic acid], the lifespan extension ([1]; 1-3 μM, continuous exposure from embryo stage until death, p<2E-14 log-rank) is listed as about 15%, the “lifespan” value ([1]; higher doses 10-100 μM, not shown) is listed as “did not extend lifespan” and the “mean lifespan vs control group” value [2] is listed as “mean lifespan was longer than in the control group”. The “cell proliferation” value [3] was “did not affect cell proliferation significantly”, the cell size ([4]; 50 μM) was 56 fL and the cell size ([4]; 100 μM) was 64 fL. For the same molecule, the cell size ([4]; concentrations up to 10 μM) was 52 fL, the “lifespan” value [5] was “did not extend their lifespan” and the “yeast replicative lifespan” value ([6]; 0.5-10 μM, p<0.05 log-rank test) was “increased yeast replicative lifespan”. The maximal lifespan extension ([6]; dose 1 μM) was about 15%, the “yeast replicative longevity” value ([6]; higher concentrations (above 10 μM; 50-100 μM)) was “did not extend replicative longevity” and the LD50 ([7]; 5-week-old mice) was 59 mg/kg. For the same molecule, the LD50 ([7]; 16-week-old mice) was 284 mg/kg.
